According to patent publication US20050180921A1, “Contrast agents to improve gastrointestinal tract opacification during abdominal and pelvic CT scans” (priority 2004, published 2005):

Tested on: gastrointestinal tract
Assay: CT of abdomen and pelvis after oral agent: bowel distension, wall visualization, transit to colon
Type: in vivo, human
Method: Institutional review board approval was obtained. These materials were offered to outpatients (ranging from 18 to 89 years of age) in random fashion. In each case, the patient was given literature to explain the project and then asked to sign a consent form. Those who declined participation in the study were given dilute iodinated contrast or water as appropriate for the exam. […] The amount of each material, 1600 cc, and timing, approximately 60 minutes, were standard for the preparation protocol used with dilute iodinated contrast. Although scanning parameters varied slightly, depending on the clinical question, all patients received 5 mm or less slices through the abdomen and pelvis. […] Where given, the intravenous contrast agent was administered from 3-5 cc/sec for 100-150 cc of 300 mg % non-ionic contrast.
Each drink was labeled with a letter A-E to blind the administered substance to the reader. […] Each CT scan was read by consensus by two readers. Each exam was rated for various characteristics. The stomach was rated for distention: 1=well distended; 2=adequate distention; 3=poor distention. The small bowel was rated for two characteristics. The distention was assessed with measurements taken from the left upper quadrant (LUQ), the pelvis, and the right lower quadrant (RLQ) areas. Three measures were taken at each area with the greatest diameters used. The diameters were then averaged. The definition of the bowel wall was also graded using visualization of the wall separate from the luminal contents as well as the ability to appreciate the valvulae conniventes when present (1=excellent, 2=good, 3=fair, 4=poor, 5=non-diagnostic). Finally, an attempt was made to assess whether the ingested liquid was able to reach the colon during the preparation time period (0=no oral contrast in colon, 1=oral contrast in colon).

O [Water, water]
LUQ small bowel distention (averaged greatest diameters) (1600 cc oral, approximately 60 minutes, left upper quadrant, group mean): 17.50 mm | Pelvis small bowel distention (averaged greatest diameters) (1600 cc oral, approximately 60 minutes, pelvis, group mean): 14.79 mm | RLQ small bowel distention (averaged greatest diameters) (1600 cc oral, approximately 60 minutes, right lower quadrant, group mean): 14.14 mm | mid to distal / small bowel distention, result in words (FIGS. 2A-2D and study in general): least effective | Wall (definition of the bowel wall, qualitative evaluation) (mean grade, 1=excellent, 2=good, 3=fair, 4=poor, 5=non-diagnostic): 2.23 | Stomach (distention, qualitative evaluation) (mean grade, 1=well distended, 2=adequate distention, 3=poor distention): 2.13 | Colon (ingested liquid reached the colon during preparation time) (mean, 0=no oral contrast in colon, 1=oral contrast in colon): .020
